Patent US11555820B2, “Nanohoop compounds for use in biotechnology and methods of making and using the same” (University of Oregon, priority 2017, dated 2023)

Columns and labels:
[1] = Photophysical properties of meta-substituted nanohoops (absorption, emission, extinction coefficient, quantum yield); format: physicochemical; conditions: for εAmax × ΦAmax (brightness) / εH→L: [n]mCPP; for Emission / Max Abs / ΦAmax (fluorescence quantum yield) / εAmax: dichloromethane; for ΦAmax (fluorescence quantum yield): room temperature; for εAmax: extinction coefficient at the absorbance maximum; for εH→L: extinction coefficient of the HOMO→LUMO transition; for CPP ε × Φ (brightness): all-para [n]CPP with the same number of rings
Description: In the following examples, all glassware was flame dried and cooled under an inert atmosphere of nitrogen unless otherwise noted. Moisture sensitive reactions were carried out under nitrogen atmosphere using Schlenk and standard syringe/septa techniques. Tetrahydrofuran, dichloromethane, dimethylformamide and 1,4-dioxane were dried by filtration through alumina according to the methods describes by Grubbs. Silica column chromatography was conducted with Zeochem Zeoprep 60 Eco 40-63 μm silica gel. Automated flash chromatography was performed using a Biotage Isolera One. Recycling gel permeation chromatography (GPC) was performed using a Japan Analytical Industry LC-9101 preparative HPLC with JAIGEL-1H/JAIGEL-2H columns in series using CHCl3. Thin Layer Chromatography (TLC) was performed using Sorbent Technologies Silica Gel XHT TLC plates. Developed plates were visualized using UV light at wavelengths of 254 and 365 nm. ^1H NMR spectra were recorded at 500 MHz or 600 MHz on a Bruker Advance-II-HD NMR spectrometer. ^13C NMR spectra were recorded 150 MHz on a Bruker Advance-III-HD NMR spectrometer. All ^1H NMR spectra were taken in CDCl3 (referenced to TMS, δ 0.00 ppm) or DMSO-d6 (referenced to residual DMSO, δ 2.50 ppm). All ^13C NMR spectra were taken in CDCl3 (referenced to chloroform, δ 77.16 ppm) or DMSO-d6 (referenced to DMSO, δ 39.52 ppm). Absorbance and fluorescence spectra were obtained in a 1 cm Quartz cuvette with dichloromethane using an Agilent Cary 100 UV-Vis spectrometer and a Horiba Jobin Yvon Fluoromax-4 Fluorimeter. Fluorescent quantum yield was measured in dichloromethane at room temperature using a Hamamatsu absolute PL quantum yield measurement system. Electrochemical experiments were performed using a Biologic SP-50 potentiostat with a Ag wire reference electrode, Pt wire counter electrode, and glassy carbon working electrode under nitrogen atmosphere in 100 mM solutions of Bu4NPF6 in DCM with ferrocene as a reference. All reagents were obtained commercially unless otherwise noted. Compounds para-benzoquinone mono-methyl ketal, compound A, compound B, PPh3 Pd Gen III, and SPhos Pd Gen 1115 were prepared according to literature procedure.
In this example, the photophysical properties of nanohoop compound embodiments comprising meta-substitution (wherein the meta-substitution refers to the fact that one of the rings of the nanohoop skeleton is connected to other rings of the nanohoop skeleton via bonds that are meta-substituted relative to each other) was evaluated. It was determined that disrupting the conjugation of the nanohoop allows the HOMO→LUMO absorption and “turns on” the fluorescence in the smaller sizes (e.g., 6-membered and 5-membered nanohoops). The absorption and emission data as well as extinction coefficients and quantum yields were collected. […] Two absorption transitions can be seen in for the smaller sizes, but the second transition blue-shifts and overlaps with the absorption at 328 nm for [10]- and [12]mCPP. The extinction coefficient of the higher energy transition is larger than that of the lower energy transition in all cases (Table 10). […] Graphs showing the extinction coefficient determination of [5]mCPP at the absorbance maxima and HOMO→LUMO transition are provided in FIGS. 10A and 10B, respectively. Graphs showing the extinction coefficient determination of [6]mCPP at the absorbance maxima and HOMO→LUMO transition are provided in FIGS. 11A and 11B, respectively. Graphs showing the extinction coefficient determination of [7]mCPP at the absorbance maxima and HOMO→LUMO transition are provided in FIGS. 12A and 12B, respectively. Graphs showing the extinction coefficient determination of [8]mCPP at the absorbance maxima and HOMO→LUMO transition are provided in FIGS. 13A and 13B, respectively. Graphs showing the extinction coefficient determination of [10]mCPP and [12]mCPP at the absorbance maxima are provided in FIGS. 14 and 15, respectively. […]

[2] = all-para [n]CPP, n≤7; cited from earlier work
HeLa cells = assay: Colorimetric CCK-8 viability assay of HeLa cells; format: cell-based; conditions: [12]CPP 0.25-1 uM, [8]CPP 0.5-2 uM, 5 wt percent Pluronic F108 in DMEM
Description: HeLa cells were treated with varying concentrations of [8]CPP and [12]CPP in the presence of 5 wt percent Pluronic F108 in DMEM, and their viability was measured using a colorimetric CCK-8 assay (purchased from Dojindo and performed following the assay instructions). Briefly, the cells were treated with the nanohoop compound and the tetrazolium salt WST-8 at each concentration for 2 hours at 37 degrees Celsius, and the optical density of the cells was subsequently measured at 450 nm. The viability of cells treated with the [12]CPP and [8]CPP compounds is illustrated in FIGS. 1 and 2, respectively.
In this example, HeLa cells were treated with the disulfonated[8]CPP nanohoop Compound 1 at concentrations of 5 uM, 10 uM, 25 uM, 50 uM and 100 uM and their viability was measured using a standard colorimetric CCK-8 assay, as described above for Example 1. The percentage of living cells remaining after exposure to various concentrations of Compound 1 is illustrated in the graph shown in FIG. 3.

H→L Absorbance ([1]; HOMO→LUMO transition)	εAmax × ΦAmax (brightness) [1]	Emission [1]	Max Abs [1]	ΦAmax (fluorescence quantum yield) [1]	εAmax [1]	εH→L [1]	CPP ε × Φ (brightness) [1]	SMILES	fluorescence of para-substituted CPP (in words) [2]	other results
376 nm	3.7 × 10^4	484 nm	326 nm	0.595	6.2 × 10^4 ± 0.9 M^−1cm^−1	1.4 × 10^4 ± 0.1 M^−1cm^−1	–	CO[C@]12C=C[C@](O)(C=C1)c1ccc(cc1)-c1cccc(c1)-c1ccc(cc1)[C@]1(O)C=C[C@@](OC)(C=C1)C1C=CC(=CC1)[C@]1(O)C=C[C@@](O)(CC1)[C@H]1C=CC2=CC1 [[8]mCPP]	–	–
–	5.2 × 10^4	456 nm	328 nm	0.726	7.1 × 10^4 ± 0.2 M^−1cm^−1	–	–	c1cc2cc(c1)-c1ccc(cc1)-c1ccc(cc1)-c1ccc(cc1)-c1ccc(cc1)-c1ccc(cc1)-c1ccc(cc1)-c1ccc(cc1)-c1ccc(cc1)-c1ccc-2cc1 [[10]mCPP]	–	overall brightness versus commercial fluorophores (in words) ([1]; compared with DAPI and Rhodamine 110): brighter than many commercial fluorophores
–	–	–	–	–	–	–	0	c1cc2ccc1=c1ccc(cc1)=c1ccc(cc1)=c1ccc(cc1)=c1ccc(cc1)=c1ccc=2cc1 [[6]CPP, reference compound]	no fluorescence	–
–	–	–	–	–	–	–	0	c1cc2ccc1=c1ccc(cc1)=c1ccc(cc1)=c1ccc(cc1)=c1ccc=2cc1 [[5]CPP, reference compound]	no fluorescence	absorption (extinction coefficient) compared with [5]mCPP ([1]; all-para [5]CPP, HOMO→LUMO transition): 450 M⁻¹ cm⁻¹
394 nm	2.3 × 10^4	491 nm	328 nm	0.450	5.1 × 10^4 ± 0.09 M^−1cm^−1	9.9 × 10^3 ± 0.08 M^−1cm^−1	–	O[C@]12C=C[C@](O)(CC1)c1ccc(cc1)-c1ccc(cc1)[C@]1(O)C=C[C@@H](C=C1)c1ccc(cc1)-c1cccc(c1)-c1ccc2cc1 [[7]mCPP]	–	–
410 nm	1.2 × 10^4	510 nm	328 nm	0.224	5.4 × 10^4 ± 0.3 M^−1cm^−1	9.4 × 10^3 ± 0.5 M^−1cm^−1	–	O[C@]12C=C[C@](O)(C=C1)c1ccc(cc1)[C@]1(O)C=C[C@@](O)(C=C1)c1ccc(cc1)-c1cccc(c1)[C@@H]1C=CC2=CC1 [[6]mCPP]	–	–
–	–	–	–	–	–	–	8.5 × 10^4	c1cc2ccc1-c1ccc(cc1)-c1ccc(cc1)-c1ccc(cc1)-c1ccc(cc1)-c1ccc(cc1)-c1ccc(cc1)-c1ccc(cc1)-c1ccc(cc1)-c1ccc-2cc1 [[10]CPP, reference compound]	–	–
–	–	–	–	–	–	–	1.4 × 10^5	c1cc2ccc1-c1ccc(cc1)-c1ccc(cc1)-c1ccc(cc1)-c1ccc(cc1)-c1ccc(cc1)-c1ccc(cc1)-c1ccc(cc1)-c1ccc(cc1)-c1ccc(cc1)-c1ccc(cc1)-c1ccc-2cc1 [[12]CPP, reference compound]	–	toxicity to HeLa cells (in words) (HeLa cells): not toxic
–	–	–	–	–	–	–	4.8 × 10^2	c1cc2ccc1-c1ccc(cc1)-c1ccc(cc1)-c1ccc(cc1)-c1ccc(cc1)-c1ccc(cc1)-c1ccc-2cc1 [[7]CPP, reference compound]	only weak fluorescence	–
–	–	–	–	–	–	–	1.0 × 10^4	c1cc2ccc1=c1ccc(cc1)=c1ccc(cc1)=c1ccc(cc1)=c1ccc(cc1)=c1ccc(cc1)=c1ccc(cc1)=c1ccc=2cc1 [[8]CPP, reference compound]	–	toxicity to HeLa cells (in words) (HeLa cells): not toxic
